These results are taken from PubChem BioAssay (NCI).

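Five compound concentrations were applied to cells in 96-well plates for 48 hours; endpoints were derived by simple linear interpolation of the resulting dose-response curve. Here, GI50 denotes the concentration required for 50% inhibition of growth. Definition used: TGI = concentration required for complete inhibition of growth.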

Some test systems named below: CCRF-CEM leukemia; RXF 393 renal; TK-10 renal; SW-620 colon; SK-MEL-28 melanoma; SK-MEL-2 melanoma; NCI-H522 lung; SN12C renal; RPMI-8226 leukemia; U251 CNS.
Assay in all cases: NCI anticancer screen, dose series, 48 h

With `CC(C)(C)N1CC(OC(N)=O)C1`, the GI50 in the assay with CCRF-CEM leukemia, with RXF 393 renal, in the assay on TK-10 renal, with SW-620 colon, with SK-MEL-28 melanoma and in the assay on SK-MEL-2 melanoma was above 100 µM each time. Moreover, the GI50 in the assay on NCI-H522 lung, in the assay with SN12C renal, in the assay with RPMI-8226 leukemia and in the assay with U251 CNS was above 100 µM each time. In addition, the TGI with CCRF-CEM leukemia, in the assay with RXF 393 renal, with TK-10 renal, in the assay on SW-620 colon, in the assay with SK-MEL-28 melanoma and in the assay with SK-MEL-2 melanoma was above 100 µM in each case. Moreover, the TGI with NCI-H522 lung, with SN12C renal, with RPMI-8226 leukemia and in the assay with U251 CNS was above 100 µM throughout.
On to `CC1Cc2c(N)nc(N3CCOCC3)nc2NC1=O` (stereo not given), for which the TGI in the assay with CCRF-CEM leukemia, in the assay on RXF 393 renal, in the assay with TK-10 renal, in the assay with SW-620 colon, with SK-MEL-28 melanoma and with SK-MEL-2 melanoma was above 100 µM in each case. Further, the TGI in the assay on NCI-H522 lung, with SN12C renal, with RPMI-8226 leukemia and in the assay on U251 CNS was above 100 µM in each case.
Regarding `CC(=O)Nc1ccc2oc(=O)c3ccccc3c2c1`, the TGI in the assay with CCRF-CEM leukemia, with RXF 393 renal, with SW-620 colon, in the assay with SK-MEL-28 melanoma, in the assay on SK-MEL-2 melanoma and in the assay with NCI-H522 lung was above 100 µM in each case. For the same compound, the TGI in the assay with SN12C renal, with RPMI-8226 leukemia and in the assay with U251 CNS was above 100 µM in each case.
In the case of `COc1ccc(-c2nc(N)c3ncn(C4OC(CO)C(O)C4O)c3n2)cc1` (stereo not given), the TGI in the assay with CCRF-CEM leukemia, in the assay on RXF 393 renal, in the assay on TK-10 renal, in the assay on SW-620 colon, with SK-MEL-28 melanoma and in the assay with SK-MEL-2 melanoma was above 100 µM throughout. The TGI in the assay with NCI-H522 lung, in the assay on SN12C renal, in the assay on RPMI-8226 leukemia and in the assay on U251 CNS was above 100 µM throughout.
For the compound `COc1cc(C)[nH]c(=O)c1CN1CCc2c(Cl)cc([C@H](OC)C3COC3)c(Cl)c2C1=O`, the GI50 in the assay on CCRF-CEM leukemia, in the assay with RXF 393 renal, in the assay on TK-10 renal, with SW-620 colon, with SK-MEL-28 melanoma and in the assay on SK-MEL-2 melanoma was above 100 µM in each case. The GI50 with NCI-H522 lung, with SN12C renal, in the assay on RPMI-8226 leukemia and in the assay with U251 CNS was above 100 µM each time. Moreover, the TGI in the assay on CCRF-CEM leukemia, with RXF 393 renal, with TK-10 renal, in the assay on SW-620 colon, in the assay on SK-MEL-28 melanoma and in the assay with SK-MEL-2 melanoma was above 100 µM in each case. Moreover, the TGI in the assay on NCI-H522 lung, with SN12C renal, in the assay on RPMI-8226 leukemia and in the assay on U251 CNS was above 100 µM each time.
With `COc1cccc(-c2nc(-c3ccc(NC(=O)c4ccccc4)cc3)[nH]c2-c2ccnc(Br)c2)c1`, the GI50 was 3.15 µM in the assay with CCRF-CEM leukemia; 0.266 µM in the assay with RXF 393 renal; 6.92 µM in the assay on TK-10 renal; 3.77 µM in the assay with SW-620 colon; 3 µM in the assay on SK-MEL-28 melanoma; 2.93 µM with SK-MEL-2 melanoma. The GI50 in the assay with NCI-H522 lung is 3.17 µM; with RPMI-8226 leukemia, 0.398 µM; in the assay on U251 CNS, 2.1 µM. Moreover, the TGI was above 100 µM in the assay with CCRF-CEM leukemia; 0.81 µM with RXF 393 renal; above 100 µM with TK-10 renal; above 100 µM in the assay with SW-620 colon; above 100 µM with SK-MEL-28 melanoma; above 100 µM in the assay with SK-MEL-2 melanoma. For the same compound, the TGI was above 100 µM in the assay with NCI-H522 lung, 2.11 µM in the assay with RPMI-8226 leukemia and above 100 µM in the assay with U251 CNS.
For `NC1=NC(c2ccccc2)CC(c2cc(Cl)cc(Br)c2O)=N1` (stereo not given), the TGI was determined as 35.6 µM in the assay on CCRF-CEM leukemia; 17 µM in the assay on RXF 393 renal; 37.3 µM in the assay on TK-10 renal; 26.2 µM in the assay on SW-620 colon; 28.9 µM in the assay on SK-MEL-28 melanoma; 18.6 µM in the assay on SK-MEL-2 melanoma. The TGI in the assay on NCI-H522 lung amounted to 15.4 µM; in the assay with SN12C renal, 30.3 µM; in the assay on RPMI-8226 leukemia it was 33.6 µM; with U251 CNS it was 26.4 µM.
Regarding `COc1ccccc1N1CCN(C(=O)c2ccc(NS(=O)(=O)c3cccc4cccnc34)cc2)CC1`, the GI50 in the assay on CCRF-CEM leukemia was above 100 µM; in the assay with RXF 393 renal, 5.02 µM; with TK-10 renal it was above 64.1 µM; with SW-620 colon, above 100 µM; with SK-MEL-28 melanoma, above 100 µM; in the assay with SK-MEL-2 melanoma, above 100 µM. Moreover, the GI50 is 22.2 µM with NCI-H522 lung, above 100 µM with SN12C renal, above 100 µM in the assay on RPMI-8226 leukemia and 78.2 µM in the assay on U251 CNS. Also, the TGI is above 100 µM in the assay on CCRF-CEM leukemia; 59.4 µM in the assay on RXF 393 renal; above 100 µM with TK-10 renal; above 100 µM in the assay with SW-620 colon; above 100 µM in the assay with SK-MEL-28 melanoma; above 100 µM in the assay on SK-MEL-2 melanoma. The TGI in the assay on NCI-H522 lung is above 88.5 µM; with SN12C renal, above 100 µM; in the assay on RPMI-8226 leukemia it was above 100 µM; with U251 CNS it was above 100 µM.
Turning to `O=C(c1cc2c(C(F)(F)F)onc2c2ccccc12)C(F)(F)F`, the TGI was 21.6 µM in the assay on CCRF-CEM leukemia; 17.4 µM in the assay with RXF 393 renal; 42.2 µM with TK-10 renal; above 100 µM in the assay with SW-620 colon; above 75.1 µM in the assay with SK-MEL-28 melanoma; 13.6 µM in the assay on SK-MEL-2 melanoma. Moreover, the TGI with NCI-H522 lung was 6.25 µM; in the assay on SN12C renal, 7.85 µM; in the assay with RPMI-8226 leukemia, 12.8 µM; with U251 CNS, 4.76 µM.
Take `CC(=O)O[C@H]1CCC2[C@@H]3CCC4Nc5c(cnn5-c5ccccc5)C[C@]4(C)C3CC[C@@]21C` (stereo not given in full): the TGI is 39.5 µM in the assay with CCRF-CEM leukemia; 24.6 µM in the assay on RXF 393 renal; 50.3 µM in the assay with TK-10 renal; 31.3 µM in the assay with SW-620 colon; 35.8 µM in the assay with SK-MEL-2 melanoma; 29.7 µM with NCI-H522 lung. Further, the TGI in the assay on SN12C renal worked out at 41.4 µM; with RPMI-8226 leukemia it was 46.2 µM; in the assay with U251 CNS it was 91.5 µM.
Consider `C#Cc1cccc(Nc2ncnc3ccc(-c4cnc(Cl)c(NS(C)(=O)=O)c4)cc23)c1`, for which the GI50 in the assay with CCRF-CEM leukemia is 0.236 µM; in the assay on RXF 393 renal, 0.218 µM; in the assay on SW-620 colon, 0.467 µM; in the assay with SK-MEL-28 melanoma, 0.182 µM; in the assay on SK-MEL-2 melanoma, 0.296 µM; in the assay on NCI-H522 lung, 0.332 µM. The figures for the GI50 in the assay on SN12C renal, with RPMI-8226 leukemia and in the assay with U251 CNS were 0.292 µM, 0.412 µM and 0.284 µM, respectively. The TGI in the assay on CCRF-CEM leukemia is 28.8 µM; in the assay on RXF 393 renal it was 0.996 µM; with SW-620 colon, 5.65 µM; with SK-MEL-28 melanoma, 1.93 µM; in the assay on SK-MEL-2 melanoma it was 1.62 µM; in the assay on NCI-H522 lung, 4.33 µM. Besides, the figures for the TGI in the assay on SN12C renal, with RPMI-8226 leukemia and with U251 CNS were above 54 µM, 2.66 µM and 2.68 µM, respectively.
On to `CC(=O)NC1C(OCc2ccccc2)OC(COC(=O)CCCCCNc2ccc([N+](=O)[O-])c3[nH]c4ccc(O)cc4c(=O)c23)C(O)C1OC(C)C(=O)N[C@@H](C)C(=O)N[C@H](CCC(=O)OCc1ccccc1)C(N)=O` (stereo not given in full), for which the TGI in the assay on CCRF-CEM leukemia is above 27.2 µM; in the assay on RXF 393 renal, 3.26 µM; with SW-620 colon, 4.42 µM; in the assay with SK-MEL-28 melanoma, 6.9 µM; with SK-MEL-2 melanoma, 3.98 µM; in the assay with NCI-H522 lung, 3.61 µM. Moreover, the TGI in the assay with SN12C renal worked out at 18.7 µM; in the assay on RPMI-8226 leukemia, 3.57 µM; in the assay on U251 CNS it was 7.04 µM.
Regarding `Cc1cccc2c1NC(=O)[C@@]21[C@H](C(=O)c2ccccc2)[C@]2(C(=O)Nc3ccccc32)[C@H]2CCCN21`, the GI50 in the assay on CCRF-CEM leukemia is 59.6 µM; in the assay on RXF 393 renal, 13.5 µM; in the assay with TK-10 renal it was 36.8 µM; in the assay on SW-620 colon, 21.6 µM; in the assay with SK-MEL-28 melanoma it was 34.3 µM; in the assay with SK-MEL-2 melanoma, 50.5 µM. In addition, the GI50 is 29.2 µM in the assay with NCI-H522 lung, above 100 µM in the assay on RPMI-8226 leukemia and 28 µM in the assay on U251 CNS. In addition, the TGI with CCRF-CEM leukemia was above 100 µM; in the assay on RXF 393 renal it was 47.5 µM; with TK-10 renal, above 100 µM; in the assay on SW-620 colon, above 100 µM; with SK-MEL-28 melanoma, above 100 µM; in the assay with SK-MEL-2 melanoma, above 100 µM. Also, the TGI in the assay on NCI-H522 lung was above 100 µM; with RPMI-8226 leukemia, above 100 µM; in the assay on U251 CNS, 92 µM.
With `O=C(CN1CCOCC1)CC(O)(C(F)(F)F)C(F)(F)F`, the TGI with CCRF-CEM leukemia, in the assay with RXF 393 renal, with TK-10 renal, in the assay on SW-620 colon, in the assay with SK-MEL-28 melanoma and with SK-MEL-2 melanoma was above 100 µM each time. The TGI in the assay with NCI-H522 lung, with RPMI-8226 leukemia and in the assay on U251 CNS was above 100 µM in each case.
